IC50 data for five molecules are collected here from patent US20240101592A1, “COMPOSITIONS AND METHODS FOR TREATING CNS DISORDERS” (Sage Therapeutics, Inc., priority 2020, published 2024).

A value given as a limit tells only on which side of the number the result lay.

In this assay the target is GABAA receptor ([35S]-TBPS binding, rat brain cortical membranes). The assay can be described thus: Steroid inhibition of [35S]-TBPS binding. The note with it: 3 nM [35S]-TBPS, in the presence of 5 mM GABA, 90 min at room temp. The method, then: Steroid Inhibition of TBPS Binding
[^35S]-t-Butylbicyclophosphorothionate (TBPS) binding assays using rat brain cortical membranes in the presence of 5 mM GABA has been described (Gee et al, J. Pharmacol. Exp. Ther. 1987, 241, 346-353; Hawkinson et al, Mol. Pharmacol. 1994, 46, 977-985; Lewin, A. H et al., Mol. Pharmacol. 1989, 35, 189-194).
Briefly, cortices are rapidly removed following decapitation of carbon dioxide-anesthetized Sprague-Dawley rats (200-250 g). The cortices are homogenized in 10 volumes of ice-cold 0.32 M sucrose using a glass/teflon homogenizer and centrifuged at 1500×g for 10 min at 4° C. The resultant supernatants are centrifuged at 10,000×g for 20 min at 4° C. to obtain the P2 pellets. The P2 pellets are resuspended in 200 mM NaCl/50 mM Na—K phosphate pH 7.4 buffer and centrifuged at 10,000×g for 10 min at 4° C. This washing procedure is repeated twice and the pellets are resuspended in 10 volumes of buffer. Aliquots ([…]) of the membrane suspensions are incubated with 3 nM [^35S]-TBPS and […] aliquots of test drug dissolved in dimethyl sulfoxide (DMSO) (final 0.5%) in the presence of 5 mM GABA. The incubation is brought to a final volume of 1.0 mL with buffer. Nonspecific binding is determined in the presence of […] and ranged from 15 to 25%. Following a 90 min incubation at room temp, the assays are terminated by filtration through glass fiber filters (Schleicher and Schuell No. 32) using a cell harvester (Brandel) and rinsed three times with ice-cold buffer. Filter bound radioactivity is measured by liquid scintillation spectrometry. Non-linear curve fitting of the overall data for each drug averaged for each concentration is done using Prism (GraphPad). […] The concentration of test compound producing 50% inhibition (IC50) of specific binding and the maximal extent of inhibition (Imax) are determined for the individual experiments with the same model used for the overall data and then the means±SEM.s of the individual experiments are calculated.
Various compounds are or can be screened to determine their potential as modulators of [^35S]-TBPS binding in vitro. These assays are or can be performed in accordance with the above.

For orientation: IC50 means the midpoint of a concentration-inhibition curve.

As to `COC[C@@]1(O)CC[C@H]2[C@@H](CC[C@@H]3[C@@H]2CC[C@@]2(C)[C@H]3[C@@H]3C[C@@H]3[C@@H]2C(C)=O)C1` [Compound No. 16, 1-((2R,4aS,4bR,6aS,7S,7aS,8aR,8bR,8cR,10aS)-2-hydroxy-2-(methoxymethyl)-6a-methyloctadecahydrocyclopropa[4,5]cyclopenta[1,2-a]phenanthren-7-yl)ethanone], the IC50 was under 100 nM.

For `C[C@@]1(O)CC[C@H]2[C@H](CC[C@@H]3[C@@H]2CC[C@]2(C)[C@@H]([C@H]4C[C@@H]4Cn4cc(C#N)cn4)CC[C@@H]32)C1` [Compound No. 24, 1-(((1S,2R)-2-((3R,5R,8R,9R,10S,13S,14S,17R)-3-hydroxy-3,13-dimethylhexadecahydro-1H-cyclopenta[a]phenanthren-17-yl)cyclopropyl)methyl)-1H-pyrazole-4-carbonitrile], the IC50 is under 100 nM.

For the molecule `C[C@@]1(O)CC[C@H]2[C@H](CC[C@@H]3[C@@H]2CC[C@@]2(C)[C@H]3[C@@H]3C[C@@H]3[C@@H]2[C@@](C)(O)Cn2cc(C#N)cn2)C1` (single isomer, unassigned) [Compound No. 13], the IC50 is under 100 nM.

As for `C[C@@]1(O)CC[C@H]2[C@H](CC[C@@H]3[C@@H]2CC[C@]2(C)[C@@H]([C@@H]4C[C@H]4Cn4cc(C#N)cn4)CC[C@@H]32)C1` [Compound No. 25, 1-(((1R,2S)-2-((3R,5R,8R,9R,10S,13S,14S,17R)-3-hydroxy-3,13-dimethylhexadecahydro-1H-cyclopenta[a]phenanthren-17-yl)cyclopropyl)methyl)-1H-pyrazole-4-carbonitrile], the IC50 was under 100 nM.

In the case of `C[C@@]1(O)CC[C@H]2[C@H](CC[C@@H]3[C@@H]2CC[C@]2(C)[C@H](C(=O)Cn4cc(C#N)cn4)[C@H]4C[C@H]4C[C@@H]32)C1` [Compound No. 7, 1-(2-((2R,4aS,4bR,6aS,7R,7aS,8aS,9aS,9bR,11aR)-2-hydroxy-2,6a-dimethyloctadecahydro-1H-cyclopropa[b]chrysen-7-yl)-2-oxoethyl)-1H-pyrazole-4-carbonitrile], the IC50 is over 1000 nM.
